What was measured:
[1] = system: H929; assay: Soluble BCMA (sBCMA) shedding after GSI (ELISA); assay type: cell-based, Human; design: unit not given here; conditions: Table 6 (sBCMA in supernatant, ELISA), 24 hours
Protocol: (§1) Multiple myeloma cells (MM.1S, OPM2, H929, Molp8, RPMI8226) were seeded in a 96-well U-bottom plate at 40,000 cells/well. Cells were incubated for 24 hours in the presence of GSI diluted in RPMI medium (0.1% DMSO). The following concentrations of the GSI were tested: 1000 nM, 500 nM, 100 nM, 50 nM, 25 nM, 10 nM, 5 nM, 2.5 nM, 1 nM, 0.1 nM, 0.01 nM. After 24 hours, cell culture medium was collected and concentration of sBCMA was measured in supernatants using Human BCMA/TNFRSF17 DuoSet ELISA kit (R&D Systems) according to manufacturer's instructions.

[2] = system: RPMI8226; assay: Soluble BCMA (sBCMA) shedding after GSI (ELISA); assay type: cell-based, Human; design: unit not given here; conditions: Table 6 (sBCMA in supernatant, ELISA), 24 hours
Protocol: as §1

[3] = system: Raji; assay: Cell surface BCMA expression after GSI, concentration series, lymphoma cells; assay type: cell-based; conditions: 24 hours, ± SD
Protocol: Lymphoma cells (Raji cell line) were seeded in a 96-well U bottom plate at 40,000 cells/well. Cells were incubated for 24 hours in the presence of GSI diluted in RPMI medium (0.1% DMSO). The following concentrations of the GSI were tested: 1000 nM, 500 nM, 100 nM, 50 nM, 25 nM, 10 nM, 5 nM, 2.5 nM, 1 nM, 0.1 nM, 0.01 nM. 24 hours later cells were collected and washed with PBS+2% FBS, followed by staining with ZombieNIR Viability Dye (Biolegend) at 1 in 500 dilution in PBS at room temperature for 20 minutes. Next, cells were washed with PBS+2% FBS and stained with anti-BCMA PE-labelled antibody (Biolegend) diluted in PBS+2% FBS for 30 minutes at 4° C. Cells were acquired on BD Flow Cytometer and analyzed using FlowJo flow cytometry analysis software. Dead cells were removed from the analysis by gating on ZombieNIR negative population. BCMA MFI was plotted against GSI concentration to establish EC50.

[4] = system: Raji; assay: Cell surface BCMA expression after GSI, time course and washout, lymphoma cells; assay type: cell-based
Protocol: Lymphoma cells (Raji) were seeded in a 6-well plate at 800,000 cells/2 ml/well with GSI diluted at 1 μM in RPMI medium (with 0.1% DMSO). Cells were collected to evaluate cell surface BCMA expression at baseline, and then at 3 hours, 6 hours and 24 hours after addition of the GSI. After 24 hours of incubation with the GSI, cells were washed twice in PBS and re-plated in fresh 6-well plates. […] At the indicated time points, samples were stained with a ZombieNIR Viability dye (Biolegend) for 20 minutes at room temperature at 1 in 500 dilution in PBS, washed with PBS+2% FBS and further stained with anti-BCMA PE-labelled antibody diluted in PBS+2% FBS for 30 minutes at 4° C. Samples were acquired on BD Flow Cytometer and analyzed using FlowJo software. Dead cells were removed from the analysis by gating on ZombieNIR negative population. BCMA mean fluorescence intensity (MFI) was plotted as a histogram.

[5] = system: MM.1S-PD-L1; assay: Subcutaneous MM.1S-PD-L1 multiple myeloma mouse model; assay type: in vivo; conditions: alone or +anti-PD-1 5 mg/kg, dosing from Day 21
Protocol: MM.1S multiple myeloma cells were engineered to express PD-L1 and are referred to as MM.1S-PD-L1. Pre-activated and expanded T cells (20×10^6) were administered on Day 19 after MM.1S-PDL1 tumor cell inoculation subcutaneously (SC). BCMAxCD3 bispecific (0.3 or 1 mg/kg) or negative bispecific (1 mg/kg) was administered IV on Day 21 and dosed Q7Dx3. Anti-PD-1 mAb was administered at 5 mg/kg intraperitoneally (IP) twice a week starting on Day 21. Tumor measurements were recorded 2 to 3 times a week using digital calipers. N (at study start) is 5-12 animals per group.

CCC[C@H](N[C@H]1CCc2cc(F)cc(F)c2C1)C(=O)Nc1cn(C(C)(C)CNCC(C)(C)C)cn1 [GSI, nirogacestat]
BCMA (-PE) MFI ([1]; H929, GSI 0.01 nM): 24084.8
BCMA (-PE) MFI ([1]; H929, GSI 0.1 nM): 27414.8
BCMA (-PE) MFI ([1]; H929, GSI 1 nM): 19516.4
BCMA (-PE) MFI ([1]; H929, GSI 2.5 nM): 12874.8
BCMA (-PE) MFI ([1]; H929, GSI 5 nM): 8438.2
BCMA (-PE) MFI ([1]; H929, GSI 10 nM): 4901.7
BCMA (-PE) MFI ([1]; H929, GSI 25 nM): 2336.4
BCMA (-PE) MFI ([1]; H929, GSI 50 nM): 1460.7
BCMA (-PE) MFI ([1]; H929, GSI 100 nM): 1110.6
BCMA (-PE) MFI ([1]; H929, GSI 500 nM): 716.5
BCMA (-PE) MFI ([1]; H929, GSI 1000 nM): 625.1
BCMA (-PE) MFI ([2]; RPMI8226, GSI 0.01 nM): 4710.8
BCMA (-PE) MFI ([2]; RPMI8226, GSI 0.1 nM): 3333.8
BCMA (-PE) MFI ([2]; RPMI8226, GSI 1 nM): 2647.5
BCMA (-PE) MFI ([2]; RPMI8226, GSI 2.5 nM): 2398
BCMA (-PE) MFI ([2]; RPMI8226, GSI 5 nM): 2525.6
BCMA (-PE) MFI ([2]; RPMI8226, GSI 10 nM): 1926.2
BCMA (-PE) MFI ([2]; RPMI8226, GSI 25 nM): 836.5
BCMA (-PE) MFI ([2]; RPMI8226, GSI 50 nM): 249.5
BCMA (-PE) MFI ([2]; RPMI8226, GSI 100 nM): 64.1
BCMA (-PE) MFI ([2]; RPMI8226, GSI 500 nM): 0 ± 0
BCMA (-PE) MFI ([2]; RPMI8226, GSI 1000 nM): 0 ± 0
BCMA MFI ([3]; GSI 0.01 nM): 142.5 ± 0.8
BCMA MFI ([3]; GSI 0.10 nM): 147.5 ± 20.6
BCMA MFI ([3]; GSI 1.00 nM): 398 ± 34
BCMA MFI ([3]; GSI 2.50 nM): 469 ± 31.2
BCMA MFI ([3]; GSI 5.00 nM): 484 ± 43.9
BCMA MFI ([3]; GSI 10.00 nM): 515.5 ± 47.4
BCMA MFI ([3]; GSI 25.00 nM): 532 ± 42.5
BCMA MFI ([3]; GSI 50.00 nM): 535 ± 65.1
BCMA MFI ([3]; GSI 100.00 nM): 498.5 ± 20.6
BCMA MFI ([3]; GSI 500.00 nM): 568.5 ± 50.3
BCMA MFI ([3]; GSI 1000.00 nM): 534.5 ± 67.2
BCMA (-PE) MFI ([4]; GSI 1 μM for 24 h, 3 h post wash): 1619
BCMA (-PE) MFI ([4]; GSI 1 μM for 24 h, 5 h post wash): 1822
BCMA (-PE) MFI ([4]; GSI 1 μM for 24 h, 24 h post wash): 795
BCMA (-PE) MFI ([4]; GSI 1 μM, 3 h after GSI): 699
BCMA (-PE) MFI ([4]; GSI 1 μM, 6 h after GSI): 735
BCMA (-PE) MFI ([4]; GSI 1 μM, 24 h after GSI): 1506

PF-06863135: heterodimeric humanized full-length bispecific antibody with one BCMA binding arm and one CD3 binding arm
Tumor Volume ± SEM ([5]; day 14 post tumor cell inoculation, BCMA × CD3 bispecific 0.3 mg/kg): 34.4 ± 9.5 mm^3
Tumor Volume ± SEM ([5]; day 14 post tumor cell inoculation, BCMA × CD3 bispecific 1 mg/kg): 26.4 ± 7.5 mm^3
Tumor Volume ± SEM ([5]; day 18 post tumor cell inoculation, BCMA × CD3 bispecific 0.3 mg/kg): 91.6 ± 18 mm^3
Tumor Volume ± SEM ([5]; day 18 post tumor cell inoculation, BCMA × CD3 bispecific 1 mg/kg): 92 ± 17.1 mm^3
Tumor Volume ± SEM ([5]; day 20 post tumor cell inoculation, BCMA × CD3 bispecific 0.3 mg/kg): 122.5 ± 20.7 mm^3
Tumor Volume ± SEM ([5]; day 20 post tumor cell inoculation, BCMA × CD3 bispecific 1 mg/kg): 130.7 ± 24.6 mm^3
Tumor Volume ± SEM ([5]; day 25 post tumor cell inoculation, BCMA × CD3 bispecific 0.3 mg/kg): 403 ± 59 mm^3
Tumor Volume ± SEM ([5]; day 25 post tumor cell inoculation, BCMA × CD3 bispecific 1 mg/kg): 601.1 ± 70^ mm^3
Tumor Volume ± SEM ([5]; day 28 post tumor cell inoculation, BCMA × CD3 bispecific 0.3 mg/kg): 403.3 ± 67.6 mm^3
Tumor Volume ± SEM ([5]; day 28 post tumor cell inoculation, BCMA × CD3 bispecific 1 mg/kg): 482.9 ± 32.6 mm^3
Tumor Volume ± SEM ([5]; day 32 post tumor cell inoculation, BCMA × CD3 bispecific 0.3 mg/kg): 603.6 ± 151.6 mm^3
Tumor Volume ± SEM ([5]; day 32 post tumor cell inoculation, BCMA × CD3 bispecific 1 mg/kg): 410.5 ± 82.7 mm^3
Tumor Volume ± SEM ([5]; day 35 post tumor cell inoculation, BCMA × CD3 bispecific 0.3 mg/kg): 835.1 ± 77.2 mm^3
Tumor Volume ± SEM ([5]; day 35 post tumor cell inoculation, BCMA × CD3 bispecific 1 mg/kg): 627.9 ± 111.8 mm^3
Tumor Volume ± SEM ([5]; day 39 post tumor cell inoculation, BCMA × CD3 bispecific 0.3 mg/kg): 1569.3 ± 151.8 mm^3
Tumor Volume ± SEM ([5]; day 39 post tumor cell inoculation, BCMA × CD3 bispecific 1 mg/kg): 1436.8 ± 276.4 mm^3

Source: patent publication US20230192878A1, “METHODS, THERAPIES AND USES FOR TREATING CANCER” (PFIZER INC., priority 2020, published 2023)
